Test results reported in patent publication US20200237766A1, “PKM2 ACTIVATORS IN COMBINATION WITH REACTIVE OXYGEN SPECIES FOR TREATMENT OF CANCER” (TOLERO PHARMACEUTICALS, INC., priority 2017, published 2020).
Where two headings read alike, the source gives them in different places.

Molecular target: PKM2 (Homo sapiens, UniProt P14618)
Assay: PKM2 activation biochemical assay (AC50 / max. response vs fructose 1,6-bisphosphate)
Conditions: for Max. Resp. (%): % maximum response in a biochemical assay as compared with Fructose 1,6-bisphosphate
[1] = biochemical assay, read-out: PKM2 AC50

Sequence of PKM2 (P14618 whole entry): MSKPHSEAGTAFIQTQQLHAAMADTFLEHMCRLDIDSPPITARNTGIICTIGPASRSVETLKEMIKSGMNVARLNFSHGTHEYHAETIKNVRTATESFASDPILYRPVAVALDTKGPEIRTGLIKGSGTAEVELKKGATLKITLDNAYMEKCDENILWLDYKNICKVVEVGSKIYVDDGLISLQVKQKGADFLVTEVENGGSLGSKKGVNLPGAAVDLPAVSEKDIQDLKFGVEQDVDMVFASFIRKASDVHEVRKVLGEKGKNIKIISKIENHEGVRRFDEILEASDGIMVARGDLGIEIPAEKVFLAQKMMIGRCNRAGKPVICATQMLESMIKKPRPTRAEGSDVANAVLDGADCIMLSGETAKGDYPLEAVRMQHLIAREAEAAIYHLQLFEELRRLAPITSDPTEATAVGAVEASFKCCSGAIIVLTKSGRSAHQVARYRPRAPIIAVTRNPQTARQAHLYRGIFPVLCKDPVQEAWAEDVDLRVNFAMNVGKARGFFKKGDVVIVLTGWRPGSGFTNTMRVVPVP

CC1CCCC(C)N1CCN(Cc1ccccc1Cl)C(=O)c1cc(C(F)(F)F)n[nH]1 (stereo not drawn) [Compound 212]
Max. Resp. (%): 53% | AC50 [1]: 5810 nM

O=c1cc(Cn2cnc3ccccc32)nc2ccccn12 [PP4]
Max. Resp. (%): 161% | AC50 [1]: 340 nM

O=C(c1cc(Br)n[nH]1)N(Cc1ccc(O)cc1F)CC1CNC1 [Compound 11]
AC50: 10400 nM | Max. Resp. (%): 61%

CC(CN(Cc1c(N)cccc1Cl)C(=O)c1cc(C(F)(F)F)n[nH]1)N1CCCC1 (stereo not drawn) [Compound 221]
Max. Resp. (%): 60% | AC50 [1]: 223 nM

Nc1cccc(Cl)c1CN(CCN1CCCC(F)C1)C(=O)c1cc(C(F)(F)F)n[nH]1 (stereo not drawn) [Compound 236]
Max. Resp. (%): 73% | AC50 [1]: 160 nM

CCOCCN(Cc1ccccc1Cl)C(=O)c1cc(C(F)(F)F)n[nH]1 [Compound 29]
Max. Resp. (%): 87%

CCN(CC)CCN(Cc1cc(Cl)ccc1Cl)C(=O)c1cc(C(F)(F)F)n[nH]1 [Compound 168]
Max. Resp. (%): 100% | AC50 [1]: 97 nM

CCN(CC)CCN(Cc1cccc2[nH]cnc12)C(=O)c1cc(C(F)(F)F)n[nH]1 [Compound 160]
Max. Resp. (%): 100% | AC50 [1]: 825 nM

CCc1nn2c(=O)cc(Cn3cnc4ccccc43)nc2s1 [PP19]
AC50 [1]: 4760 nM

O=C(c1cc(C(F)(F)F)n[nH]1)N(CCc1ccc(O)cc1)Cc1ccccc1Cl [Compound 230]
Max. Resp. (%): 100% | AC50 [1]: 12000 nM

O=C(c1cc(Br)n[nH]1)N(CCC1CCS(=O)(=O)CC1)Cc1ccccc1F [Compound 83]
Max. Resp. (%): 98% | AC50 [1]: 1100 nM

O=C(c1cc(C(F)(F)F)n[nH]1)N(CCC1CC1)Cc1ccc(O)cc1F [Compound 140]
Max. Resp. (%): 100% | AC50 [1]: 32 nM

O=C(c1cc(C(F)(F)F)n[nH]1)N(CCN1CCCC1)Cc1c(F)cccc1Cl [Compound 177]
Max. Resp. (%): 100% | AC50 [1]: 180 nM

O=C(c1cc(C(F)(F)F)n[nH]1)N(CCC1CCOC1)Cc1c(Cl)cccc1Cl (stereo not drawn) [Compound 33]
Max. Resp. (%): 81% | AC50 [1]: 4030 nM

O=c1cc(Cn2cnc3ccccc32)nc2ccc(Cl)cn12 [PP10]
AC50 [1]: 219 nM

O=C(c1cc(C(F)(F)F)n[nH]1)N(CCC1CC1)Cc1ccccc1F [Compound 149]
Max. Resp. (%): 100% | AC50 [1]: 2000 nM

Cn1cc(C(=O)c2cccc(Cl)c2Cl)cc1C(N)=O [CA2]
AC50 [1]: 17000 nM

O=C(c1cc(C(F)(F)F)n[nH]1)N(CCC1CCS(=O)(=O)C1)Cc1c(Cl)cccc1Cl (stereo not drawn) [Compound 64]
Max. Resp. (%): 71% | AC50 [1]: 3780 nM

O=C1CCC(CCN(Cc2ccccc2F)C(=O)c2cc(C(F)(F)F)n[nH]2)CC1 [Compound 60]
Max. Resp. (%): 105% | AC50 [1]: 101 nM

O=C(c1cc(C(F)(F)F)n[nH]1)N(CCC1CCS(=O)(=O)C1)Cc1ccccc1Cl (stereo not drawn) [Compound 62]
AC50: 273 nM | Max. Resp. (%): 105%

O=C(c1cc(C(F)(F)F)n[nH]1)N(CCC1CCS(=O)(=O)CC1)Cc1ccccc1Cl [Compound 75]
Max. Resp. (%): 102% | AC50 [1]: 188 nM

O=C(c1cc(C(F)(F)F)n[nH]1)N(Cc1ccccc1F)CC1CCOCC1 [Compound 45]
Max. Resp. (%): 52% | AC50 [1]: 25100 nM

CO[C@H]1CC[C@H](N(Cc2ccccc2F)C(=O)c2cc(C(F)(F)F)n[nH]2)CC1 [Compound 47]
Max. Resp. (%): 89% | AC50 [1]: 435 nM

CO[C@H]1CC[C@H](N(Cc2cc(F)ccc2F)C(=O)c2cc(C(F)(F)F)n[nH]2)CC1 [Compound 50]
AC50: 1670 nM | Max. Resp. (%): 90%

Nc1ccc(F)c(CN(CCN2CCCCCC2)C(=O)c2cc(C(F)(F)F)n[nH]2)c1 [Compound 214]
Max. Resp. (%): 100% | AC50 [1]: 153 nM

NC1CC(N(Cc2ccccc2Cl)C(=O)c2cc(C(F)(F)F)n[nH]2)C1 (stereo not drawn) [Compound 226]
Max. Resp. (%): 80% | AC50 [1]: 12000 nM

CN(C)CCN(Cc1ccccc1Cl)C(=O)c1cc(C(F)(F)F)n[nH]1 [Compound 187]
Max. Resp. (%): 100% | AC50 [1]: 295 nM

CCc1ccc(C)n2c(=O)cc(Cn3cnc4ccccc43)nc12 [PP11]
AC50 [1]: 120 nM

O=C(c1cc(Br)n[nH]1)N(Cc1ccc(O)cc1F)CC1CCC1 [Compound 245]
Max. Resp. (%): 100% | AC50 [1]: 35 nM

O=C(c1cc(C(F)(F)F)n[nH]1)N(CCC1CC[S+]([O-])CC1)Cc1ccccc1Cl (stereo not drawn) [Compound 74]
Max. Resp. (%): 95% | AC50 [1]: 640 nM

O=C(c1cc(C(F)(F)F)n[nH]1)N(CCN1CCCC1)Cc1ccccc1F [Compound 158]
Max. Resp. (%): 100% | AC50 [1]: 265 nM

O=C(c1cc(C(F)(F)F)n[nH]1)N(CCC1CCOC1)Cc1ccccc1Cl (stereo not drawn) [Compound 43]
AC50: 1330 nM | Max. Resp. (%): 110%

CC1CCCN(CCN(Cc2ccccc2Cl)C(=O)c2cc(C(F)(F)F)n[nH]2)C1 (stereo not drawn) [Compound 191]
Max. Resp. (%): 100% | AC50 [1]: 29 nM

O=C(c1cc(C(F)(F)F)n[nH]1)N(CCN1CCCC1)Cc1cccc2nc[nH]c12 [Compound 163]
Max. Resp. (%): 100% | AC50 [1]: 1080 nM

CC(c1ccccc1)N(CC1CCC1)C(=O)c1cc(N)n[nH]1 (stereo not drawn) [Compound 4]
Max. Resp. (%): 52% | AC50 [1]: 1480 nM

O=C(c1cc(C(F)(F)F)n[nH]1)N(CCC1CCCO1)Cc1ccccc1F (stereo not drawn) [Compound 46]
Max. Resp. (%): 70% | AC50 [1]: 13400 nM

O=C(c1cc(C(F)(F)F)n[nH]1)N(CCC1CCS(=O)(=O)C1)Cc1cncs1 (stereo not drawn) [Compound 93]
AC50: 49000 nM | Max. Resp. (%): 26%

O=C(c1cc(C(F)(F)F)n[nH]1)N(CCC1CCC2(CC1)OCCO2)Cc1ccccc1F [Compound 59]
Max. Resp. (%): 100% | AC50 [1]: 494 nM

Cc1cccn2c(=O)cc(Cn3cnc4ccccc43)nc12 [PP13]
AC50 [1]: 145 nM

CCCN(CC)CCN(Cc1ccccc1Cl)C(=O)c1cc(C(F)(F)F)n[nH]1 [Compound 209]
Max. Resp. (%): 100% | AC50 [1]: 52 nM

Cc1sc2nc(Cn3cnc4ccccc43)cc(=O)n2c1C [PP14]
AC50 [1]: 86 nM

Nc1cccc(Cl)c1CN(CCN1CCS(=O)(=O)CC1)C(=O)c1cc(C(F)(F)F)n[nH]1 [Compound 224]
Max. Resp. (%): 100% | AC50 [1]: 410 nM

N#Cc1ccc(C(=O)CCSC(=S)NCc2cccnc2)cc1 [PMA12]
Max. Resp. (%): 61% | AC50 [1]: 4390 nM

O=c1cc(Cn2cnc3ccccc32)nc2scc(-c3ccccc3)n12 [PP15]
AC50 [1]: 1030 nM

CCN(CC)CCN(Cc1c(F)cccc1Cl)C(=O)c1cc(C(F)(F)F)n[nH]1 [Compound 172]
Max. Resp. (%): 100% | AC50 [1]: 94 nM

O=C(c1cc(Cl)n[nH]1)N(Cc1ccncc1F)CC1CCC1 [Compound 116]
AC50 [1]: 38000 nM

O=C(c1cc(C(F)(F)F)n[nH]1)N(CCN1CCCCC1)Cc1c(Cl)cccc1Cl [Compound 180]
Max. Resp. (%): 100% | AC50 [1]: 154 nM

CCN1CCC(CCN(Cc2c(Cl)cccc2Cl)C(=O)c2cc(C(F)(F)F)n[nH]2)CC1 [Compound 105]
Max. Resp. (%): 71% | AC50 [1]: 3270 nM

O=C(CCSC(=S)NCc1cccnc1)c1ccc(O)cc1 [PMA11]
Max. Resp. (%): 76% | AC50 [1]: 6230 nM

O=C(c1cc(C(F)(F)F)n[nH]1)N(CCN1CCCCC1)Cc1c(F)cccc1Cl [Compound 179]
Max. Resp. (%): 100% | AC50 [1]: 133 nM

O=C(c1cc(C(F)(F)F)n[nH]1)N(Cc1cccc2c1CCN2)CC1CCC1 [Compound 14]
Max. Resp. (%): 81%

Cc1csc2nc(Cn3cnc4ccccc43)cc(=O)n12 [PP16]
AC50 [1]: 127 nM

O=C(c1cc(Cl)n[nH]1)N(CCC1CCSCC1)Cc1ccccc1F [Compound 80]
AC50: 1300 nM | Max. Resp. (%): 46%

Nc1cccc(Cl)c1CN(CCN1CC[C@H](F)C1)C(=O)c1cc(C(F)(F)F)n[nH]1 [Compound 241]
AC50: 125 nM | Max. Resp. (%): 100%

Nc1cccc(CN(CCN2CCCCCC2)C(=O)c2cc(C(F)(F)F)n[nH]2)c1F [Compound 216]
Max. Resp. (%): 100% | AC50 [1]: 117 nM

O=C(CCSC(=S)NCc1cccnc1)c1ccc(F)cc1 [PMA10]
Max. Resp. (%): 48% | AC50 [1]: 9830 nM

CC(c1ccccc1)N(CC1CCC1)C(=O)c1cc(C(F)(F)F)n[nH]1 (stereo not drawn) [Compound 5]
Max. Resp. (%): 106% | AC50 [1]: 4650 nM

CCN1CCN(CCN(Cc2ccccc2F)C(=O)c2cc(C(F)(F)F)n[nH]2)CC1 [Compound 106]
Max. Resp. (%): 115% | AC50 [1]: 6300 nM

COc1ccc(C(=O)CCSC(=S)NCc2cccnc2)cc1 [PMA16]
Max. Resp. (%): 63% | AC50 [1]: 11200 nM

O=C(c1cc(C(F)(F)F)n[nH]1)N(Cc1ccccc1F)CC1CCS(=O)(=O)CC1 [Compound 71]
Max. Resp. (%): 71% | AC50 [1]: 10200 nM

O=C(c1cc(C(F)(F)F)n[nH]1)N(CCC1CCS(=O)(=O)C1)Cc1ccccc1F (stereo not drawn) [Compound 63]
Max. Resp. (%): 87% | AC50 [1]: 240 nM

O=C(c1cc(C(F)(F)F)n[nH]1)N(CCN1CCS(=O)(=O)CC1)Cc1c(F)cccc1F [Compound 109]
Max. Resp. (%): 94% | AC50 [1]: 4200 nM

O=C(c1cc(C(F)(F)F)n[nH]1)N(Cc1ccccc1Cl)CC1CCN1 (stereo not drawn) [Compound 227]
Max. Resp. (%): 100% | AC50 [1]: 215 nM

O=C(c1cc(C2CC2)n[nH]1)N(Cc1ccc(O)cc1F)CC1CCC1 [Compound 246]
Max. Resp. (%): 85%

CC(C)(C)CN(Cc1cccc2[nH]ccc12)C(=O)c1cc(C(F)(F)F)n[nH]1 [Compound 13]
Max. Resp. (%): 33% | AC50 [1]: 49100 nM

O=C(CCSC(=S)NCc1cccnc1)c1ccc(C(F)(F)F)cc1 [PMA17]
Max. Resp. (%): 23% | AC50 [1]: > 20000 nM

O=C(c1cc(C(F)(F)F)n[nH]1)N(Cc1ccccc1Cl)CC1CCC1 [Compound 127]
AC50: 258 nM | Max. Resp. (%): 100%

Nc1cccc(Cl)c1CN(CCN1CCCC(F)CC1)C(=O)c1cc(C(F)(F)F)n[nH]1 (stereo not drawn) [Compound 243]
Max. Resp. (%): 100% | AC50 [1]: 106 nM

NCc1ccccc1CN(CC1CCC1)C(=O)c1cc(C(F)(F)F)n[nH]1 [Compound 145]
AC50 [1]: 25500 nM

O=C(c1cc(C(F)(F)F)n[nH]1)N(CCC1CCSCC1)Cc1ccc(O)cc1F [Compound 86]
Max. Resp. (%): 98% | AC50 [1]: 93 nM

CC1CCCCN1CCN(Cc1ccccc1Cl)C(=O)c1cc(C(F)(F)F)n[nH]1 (stereo not drawn) [Compound 192]
Max. Resp. (%): 100% | AC50 [1]: 104 nM
